From patent US5998437A, “Benzimidazole derivatives” (Otsuka Pharmaceutical Co., Ltd., priority 1995, dated 1999)

What was measured:
cGMP-PDE = target: T1, cGMP-PDE (Homo sapiens, UniProt O76074); experiment: Activity for inhibiting cGMP PDE (PDE partially purified from human platelets, FI fraction); format: biochemical; settings: 0.4 μM of [3H]-cGMP
T1 construct: Separation and partial purification of PDE (phosphodiesterase) from human platelets; from tissue; host or cells: human platelets (supernatant, DEAE-cellulose FI fraction)
Experimental: (1) Measurement of the Activity for Inhibiting cGMP PDE
Separation and partial purification of PDE (phosphodiesterase) from human platelets, and measurement of the activity for inhibiting cGMP PDE were conducted by the method of Hidaka, et al. [Biochimica et Biophysica Acta, Vol. 429, (1976), pp. 485-497]. The platelets obtained from human healthy adult were washed, and suspended in TRIS-buffer solution, then said suspension was treated by centrifugal separation, the supernatant was subjected to a DEAE-cellulose treatment and fractionated into FI to FIII fractions by a method of concentration gradient of sodium acetate. Thus obtained FI fraction was used as the sample of cGMP-PDE. The activity for inhibiting cGMP-PDE was measured by using 0.4 μM of [^3 H]-cGMP.

TPA induced inflammation = experiment: Activity for inhibiting TPA induced inflammation (ear pinna); format: in vivo, ICR strain female mouse; settings: 1% solution, 20 μl on ear pinna 30 minutes before TPA; 4 hours after TPA coating
Experimental: (6) Determination of the Activity for Inhibiting TPA Induced Inflammation
Test was conducted by the modified method of Carlson, et al. [Agents Actions, Vol. 26, (1989), page 319]. Thus, to the ear pinna of ICR strain female mouse, 20 μl of acetone solution of 12-O-tetradecanoylphorbol-13-acetate (TPA) in the concentration of 200 μg/ml was coated to induce inflammation. The thickness of ear pinna of 4 hours after the TPA coating was measured, and difference of the last value was defined as the ear pinna inflammation. Test compound was dissolved in acetone-methanol (4:1 by v/v) to make the concentration of 1%. 20 μl of test compound solution was coated on the ear pinna 30 minutes before the TPA coating. By using compound of Example 3 as test compound, the inflammation was inhibited at the rate of 66%.

rat mesangial cells = experiment: Activity for inhibiting proliferation of rat mesangial cells (PDGF-BB, [3H]-thymidine uptake); format: cell-based; settings: Mesangial cell, 5 ng/ml PDGF-BB, 0.5% FCS
From the text: (7) Determination of the Activity for Inhibiting Proliferation of Rat Mesangial Cells
In accordance with the method of F. Jaffer, et al. [Am. J. Pathol., Vol. 135, (1989), pages 261-269], the mesangial cells were collected. Under anesthetized condition, the kidney of a rat was aseptically enucleated and the medulla renis was cut out, then the cortex renis was pressed to a sieve (120 mesh) made of stainless steel. The fraction of cortex renis passed through the sieve was put on another sieve of 200 mesh and washed with PBS (phosphate-buffered saline), the fraction being remained on the sieve was confirmed as the glomerulus. This fraction was cultured in RPMI 1640 medium [containing 15% of fetal calf serum (FCS), and 5 μg/ml of insulin] for 4 weeks. This fraction was further subcultured twice, and the remaining cells were thought of as the mesangial cells for use of this experiment.
Determination of the activity for inhibiting proliferation of rat mesangial cells was conducted in accordance with the method of M. B. Ganz, et al. [Am. […]
Thus 2×10^4 /ml of mesangial cells were inoculated on a culture plate (48 wells, each well having the capacity of 0.5 ml), and cultured with RPMI medium (containing 15% FCS) for 3 days. […] The supernatant of the culture medium was taken up, and the amount of [^3 H]-thymidine up-taken into the cells was measured by use of scintillation counter.

SMILES: O=C(Nc1ccc2c(ccn2CCCn2ccnc2)c1)c1nc2ccc(Cl)cc2n1Cc1ccccc1 [Example 3, 1-benzyl-6-chloro-2-{1-[3-(imidazol-1-yl)propyl]indol-5-ylamino-carbonyl}benzimidazole]
- IC50 (cGMP-PDE): 0.01 µM
- Inhibition rate of TPA induced inflammation (TPA induced inflammation): 66%
- IC50 (rat mesangial cells): 790 nM
